Test results from patent EP4389746A2, “P2X3 RECEPTOR ANTAGONISTS” (Recordati Industria Chimica E Farmaceutica SPA, priority 2022, dated 2024).

Key:
human P2X3 receptor = molecular target: T1, human P2X3 receptor (Homo sapiens, UniProt P56373); test: Calcium luminescence measurement: human P2X3 receptor activity inhibition (CHO-K1 cells, photoprotein readout, FLEXSTATION); assay type: cell-based; details: CHO-K1 cells co-expressing human P2X3 and Ca2+ sensitive photoprotein; agonist α,β-Met-ATP; read-out: h-P2X3 IC50
T1 construct: expressed in transfected cells; host or cells: CHO-K1
T1 sequence (P56373 1-397): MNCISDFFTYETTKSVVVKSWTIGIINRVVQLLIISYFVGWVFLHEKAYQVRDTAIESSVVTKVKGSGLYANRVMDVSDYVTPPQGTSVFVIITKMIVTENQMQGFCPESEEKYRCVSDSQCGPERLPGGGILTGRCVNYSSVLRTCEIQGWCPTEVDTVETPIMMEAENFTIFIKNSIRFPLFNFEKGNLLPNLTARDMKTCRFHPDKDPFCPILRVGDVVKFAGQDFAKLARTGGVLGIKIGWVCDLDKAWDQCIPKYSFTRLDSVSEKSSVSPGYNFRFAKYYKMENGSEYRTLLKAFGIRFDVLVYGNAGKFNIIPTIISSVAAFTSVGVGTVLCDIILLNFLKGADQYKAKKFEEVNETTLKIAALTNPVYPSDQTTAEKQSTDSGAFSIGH

C57BL/6J mice = test: Scratching model: inhibition of ATP induced pruritus in mouse; assay type: in vivo
Experimental: (§1) C57BL/6J mice, Hartley Guinea pigs and Sprague-Dawley Rats from Charles River Italy were used in the experiments. Animals were housed with free access to food and water and maintained on a forced 12 hr light-dark cycle at 22-24°C for at least one week before the experiments were carried out. The animals were handled according to internationally accepted principles for care of laboratory animals (Directive 2010/63/EU of the European Parliament and of the Council of 22 September 2010).
"Scratchng model" - Inhibition of ATP induced pruritus in mouse
Mice were shaved at the rostral back the day before injection. The day of the experiment, an intradermal injection of the irritant agent α,β-meATP 200 µg/50 µL (Sigma, Italy) into the skin was performed. The hind limb scratching behavior directed toward the injection site, was recorded. One bout was defined as the lifting of the hindlimb toward the injection site and then placing the limb back on the floor. The number of bouts were counted for a period of 30 minutes. The Example 22 compound investigated was injected intraperitoneally 30 min before the administration of the irritant agent. (Fig. 2)
In the scratching model the results are presented as mean ± SEM of the values. Statistical analysis was performed using one-way ANOVA and Dunnet's test for multiple comparisons. The ED35 of the tested compounds was determined by linear regression analysis of bouts (Graphpad v5).

Hartley Guinea pigs = test: Cough model: inhibition of citric acid induced cough in guinea pig; assay type: in vivo; details: intraperitoneally 30 min before nebulization of citric acid 0.4 M, compared with vehicle (Fig. 3)
Experimental: as §1
"Cough model" - Inhibition of citric acid induced cough in guinea pig
Conscious guinea pigs were placed in the transparent chamber of the whole-body plethysmograph (EMKA) and allowed to move freely. The number of coughs was registered by the IOX2 software for 10 minutes during and 10 minutes after the nebulization of citric acid 0.4 M. Example 22 was injected intraperitoneally 30 min before the nebulization of citric acid. (see Fig. 3) In cough model the results are presented as mean ± SEM of the values. Statistical analysis was performed using one-way ANOVA and Dunnet's test for multiple comparisons.

Sprague-Dawley Rats = test: Two bottle taste test in rats: dysgeusia effect of P2X3 antagonists; assay type: in vivo; details: rats water fasted overnight; bottles presented 30 minutes after treatment for 15 minutes (Fig. 4)
Experimental: as §1
(Fig 3) "Two bottle taste test" in rats - Dysgeusia effect of P2X3 antagonists
Rats were water fasted overnight. The day of the experiment the animals were treated with tested compounds and 30 minutes later two bottles were presented for 15 minutes, the first one containing water and the second bottle containing Quinine, a substance showing a bitter taste. The volume of liquid drunk in 15 minutes from each bottle was recorded and expressed as percentage of preference (Fig.4). Statistical analysis was performed on absolute values (mean ± SEM) using one-way ANOVA and Tukey's test for multiple comparisons.

IC50 (human P2X3 receptor): 0.0368 µM
Compound: CC(C)C1C(=O)N=C2c3ncc(N4CCOCC4)cc3N(Cc3ccc(Cl)cc3)C(=O)N21 (racemic) [Example 22, 6-[(4-Chlorophenyl)methyl]-8-(morpholin-4-yl)-3-(propan-2-yl)imidazo[1,2-c]pyrido[2,3-e]pyrimidine-2,5(3H,6H)-dione]
ED35 (C57BL/6J mice; dose inhibiting the 35% of number of bouts, intraperitoneally 30 min before α,β-meATP 200 µg/50 µL intradermal, bouts counted for 30 minutes): 10.62 mg/kg
number of bouts (C57BL/6J mice; intraperitoneally 30 min before α,β-meATP, vs vehicle group (Fig. 2)): reduce the number of bouts significantly and in a dose-related manner
number of coughs (Hartley Guinea pigs): significantly reduced the number of coughs both during and after the nebulization of citric acid
preference between water and Quinine (Sprague-Dawley Rats): showed a clear preference for water in comparison to Quinine
